{"source": "patent US20040170601A1", "about": "“Method of improving the growth performance of an animal” (priority 2001, published 2004)", "key": {"[1]": {"tested_on": "haemorrhagic E. coli", "experiment": "Example 6: haemorrhagic E. coli challenge of weaner pigs", "type": "in vivo", "parameters": "decrease in faecal shedding (total faecal culture scores) compared to saline treated controls / reduction in clinical signs compared to saline controls / reduction in E. coli culture scores at post-mortem compared to saline controls / reduction of bacterial load in the small intestine (foregut) compared with saline controls: concentration or dose not given beside the values", "procedure": "Male weaner pigs, with a mean weight of 5.4 kg were allocated to groups of 8, with the mean weight being equalised between groups. Pigs were housed in group pens. Pigs were provided with pelleted feed and water ad libitum.\nPigs were treated with cytokines or the antibiotic, Apralan, and challenged with E. coli according to the schedule outlined in FIG. 42. E. coli were delivered orally in an 8 ml dose containing 10^8 cfu/ml. Blood was sampled from pigs by venipuncture at −2 days, day 0, and +6 days from initial challenge with E. coli as outlined in FIG. 42. Blood was assayed for immunological parameters as previously described. Pigs were weighed at day −2 and at the end of the trial on day 7.\nFaecal samples were taken from each pig daily from day 2 to day 6 after challenge; these samples were cultured on sheep blood agar to quantify E. coli load. The condition of faeces on each day of challenge was noted as normal, wet or diarrhoea, as an indication of clinical signs.\nAt the conclusion of the experiment, pigs were euthanased and samples were taken from different areas in the gastro-intestinal tract, including the small intestine (25%, 50% and 75% along the length of the small intestine), the caecum and colon, and from the faeces. These post-mortem samples were also plated out on sheep blood agar to quantify E. coli load. Growth on sheep blood agar was scored from 0 to 5 (where 0 was no growth, 1 signified growth in the primary inoculum, 2 signified growth in the first streak, 3 signified growth in the 2nd streak, 4 signified growth in the 3rd streak, and 5 signified growth of E. coli in the final streak), and group means and standard errors were calculated."}, "[2]": {"tested_on": "Brachyspira (Serpulina) hyodysenteriae", "experiment": "Example 7: swine dysentery challenge, IL-5 prophylactic", "type": "in vivo, pigs", "text": "One aim of this example was to determine whether IL-5 could improve the health of pigs infected with an enteric inflammatory pathogen causing swine dysentery, Brachyspira (Serpulina) hyodysenteriae. A further aim was to determine whether IL-5 could improve the growth rate of pigs under conditions of challenge with swine dysentery.\nMale pigs with a mean starting weight of 6.5 kg, were allocated to treatment groups consisting of eight pigs (Table 6). Pigs were housed in group pens, with each pen containing a replicate from each of the treatment groups. One group of 8 pigs was housed in a separate room and left uninfected to act as untreated controls. Pigs were provided with pelleted feed and water ad libitum.\nPrior to swine dysentery challenge, pigs were treated with recombinant IL-5 or saline, as described in Table 6. Cytokines and the antibiotic, Lincomycin, were delivered by intramuscular injection at intervals outlined in Table 7. Pigs were infected with Brachyspira hyodysenteriae at day 0, day 1 and day 2, given as an oral bolus of 120 ml of spirochaete culture in log phase of growth, containing approximately […].\nFaecal swabs and blood samples were taken from each pig at intervals described in Table 7. Faecal swabs were cultured for the presence of spirochaetes. Blood samples were assayed for immunological parameters as described in example 1 above. Pigs were weighed at weekly intervals throughout the experiment, which was terminated by euthanasia on days 19 and 20 after the initial challenge. At post mortem swabs from areas of the hindgut were cultured for the presence of spirochaetes, and the gross pathological condition of the gastro-intestinal tissue noted."}, "[3]": {"tested_on": "Brachyspira (Serpulina) hyodysenteriae", "experiment": "Example 13: swine dysentery challenge, IL-4 prophylactic", "type": "in vivo, pigs", "text": "The aim of this example was to determine whether IL-4 could improve the health of pigs infected with an enteric inflammatory pathogen causing swine dysentery, Brachyspira (Serpulina) hyodysenteriae. A further aim was to determine whether IL-4 could improve the growth rate of pigs under conditions of challenge with swine dysentery.\nMale pigs with a mean starting weight of 6.5 kg, were allocated to treatment groups consisting of eight pigs (Table 10). Pigs were housed in group pens, with each pen containing a replicate from each of the treatment groups. One group of 8 pigs was housed in a separate room and left uninfected to act as untreated controls. Pigs were provided with pelleted feed and water ad libitum.\nPrior to swine dysentery challenge, pigs were treated with recombinant IL-4 or saline, as described in Table 10. Cytokines and the antibiotic, Lincocin, were delivered by intramuscular injection at intervals outlined in Table 11. Pigs were infected with Brachyspira hyodysenteriae at day 0, day 1 and day 2, given as an oral bolus of 120ml of spirochaete culture in log phase of growth, containing approximately […] cells.\nFaecal swabs and blood samples were taken from each pig at intervals described in Table 11. Faecal swabs were cultured for the presence of spirochaetes. Blood samples were assayed for immunological parameters as described in example 1 above. Pigs were weighed at weekly intervals throughout the experiment, which was terminated by euthanasia on days 19 and 20 after the initial challenge. At post mortem swabs from areas of the hindgut were cultured for the presence of spirochaetes, and the gross pathological condition of the gastro-intestinal tissue noted."}, "[4]": {"settings": "cited from earlier work"}, "[5]": {"tested_on": "TNFα", "experiment": "Example 12: TNFα in serum after App challenge (bioassay, L929 target cells)", "type": "in vivo, pigs", "settings": "day 13 after challenge", "procedure": "(§1) Due to the intermittent availability of Actinobacillus pleuropneumoniae (App), the App challenge was performed separately on the 2 rooms, resulting in different time schedules for each room, as outlined in Table 9. Prior to each challenge, pigs were treated with recombinant cytokines, flunix or plasmids as described above; the timing of treatments with respect to challenge is described in Table 9. Pigs were anaesthetised and infected intratracheally with 7.5×10^5 […] on day 0.\n[…] Blood was assayed for immunological parameters as previously described.\n(§2) Briefly, assays were performed on blood samples using standard techniques, including: white blood cell counts performed using an automated cell counter; differential cell counts performed manually on stained blood smears; lymphocyte subset enumeration via flow cytometry; neutrophil function determined by flow cytometry; lymphocyte proliferation determined using a thymidine incorporation assay in response to mitogens; total IgG and IgA levels were identified using indirect sandwich ELISA; levels of mRNA for pro-inflammatory cytokines was detected by RT-PCR. TNF levels were additionally measured in serum by bioassay using L929 target cells. Pigs were weighed weekly from delivery of plasmids and for 2 weeks after challenge."}, "[6]": {"tested_on": "Actinobacillus pleuropneumoniae", "experiment": "Example 12: Actinobacillus pleuropneumoniae (App) challenge: growth, clinical signs, lung pathology", "type": "in vivo, pigs", "text": "The following experiment was designed to determine whether IL-4 could improve the growth of immunologically challenged pigs compared to saline treated controls and positive controls treated with the non-steroidal anti-inflammatory drug (NSAID) Flunix. It was also devised to determine whether IL-4 could be delivered via plasmids.\nMale pigs, with a mean starting weight of 52 kg, were allocated to 5 treatment groups (Table 8). Pigs were housed in group pens, with each pen containing a replicate from each of the treatment groups. Pigs were provided with pelleted feed and water ad libitum.\nRecombinant IL-4 and saline were administered as 2 ml doses, given subcutaneously behind the ear. Plasmids were administered in 1 ml doses, given intramuscularly in the hind-leg. Flunix was administered as a 2 ml dose according to the manufacturer's instructions, and delivered intramuscularly in the neck. The timetable of administration is outlined in Table 9 below.\nas §1, §2\nIL-4 delivered as a recombinant caused a reduction of 36% in the presence of clinical symptoms compared to pigs treated with saline, while IL-4 delivered in plasmid form produced a reduction of 62% compared to saline-treated controls (45% reduction compared to plasmid-treated controls).\nAt the conclusion of the trial, pigs were euthanased and the lungs removed for post-mortem examination. Lungs were scored for pleurisy from 0-5 (FIG. 79) and the degree of pleuropneumonia was determined by weighing affected lung and expressed as a percentage of total lung weight (FIG. 80)."}}, "note": "“Also recorded” adds a separate entry of the source.", "data": [{"smiles": "CN[C@@H]1[C@@H](O[C@H]2O[C@H](CO)[C@@H](N)[C@H](O)[C@H]2O)OC2C[C@@H](N)[C@@H](O[C@H]3[C@H](O)[C@@H](O)[C@H](N)C[C@@H]3N)OC2[C@@H]1O", "note": "(stereo partly drawn) [Apralan, reference compound]", "values": [{"measurement": "clinical signs (wet faeces or diarrhoea)", "setting": "[1]; 5 days after challenge", "result": "less recordings of wet faeces than did saline controls, but also displayed a minor increase in the prevalence of diarrhoea"}, {"measurement": "E. coli shedding in faeces (faecal culture)", "setting": "[1]; day 2 to day 6 after challenge", "result": "decreased E. coli shedding in faeces; also recorded: least bacterial shedding of all treatments"}, {"measurement": "decrease in faecal shedding (total faecal culture scores) compared to saline treated controls", "setting": "[1]; entire challenge period", "result": 80, "unit": "%"}, {"measurement": "appetite (daily feed intake per pig) during E. coli challenge", "setting": "[1]; pig, in vivo", "result": "improved appetite compared to saline treated pigs"}, {"measurement": "bacterial load in areas of the gastro-intestinal tract at post-mortem", "setting": "[1]; pig, in vivo", "result": "reduced bacterial load in most areas of the gastro-intestinal tract"}, {"measurement": "group mean total E. coli culture score at post-mortem (out of a possible 30)", "setting": "[1]; pig, in vivo", "result": 12}, {"measurement": "reduction in clinical signs compared to saline controls", "setting": "[1]; pig, in vivo", "result": 27, "unit": "%"}, {"measurement": "bacterial loads in the hindgut area (caecum and colon)", "setting": "[1]; post-mortem", "result": "lowest of all treatments"}, {"measurement": "reduction of bacterial load in the small intestine (foregut) compared with saline controls", "setting": "[1]; post-mortem", "result": 32, "unit": "%"}]}, {"smiles": "CCC[C@@H]1C[C@@H](C(=O)N[C@@H]([C@H]2O[C@H](SC)[C@H](O)[C@@H](O)[C@H]2O)[C@@H](C)O)N(C)C1", "note": "[Lincocin, Lincomycin, reference compound]", "values": [{"measurement": "spirochaete shedding in faeces (faecal culture)", "setting": "[2]; after challenge", "result": "no signs of faecal spirochaete shedding by day 14"}, {"measurement": "reduction in the number of spirochaetes compared to saline treated pigs", "setting": "[2]; anterior colon, post mortem", "result": 89, "unit": "%"}, {"measurement": "reduction in the number of spirochaetes compared to saline treated pigs", "setting": "[2]; caecum, post mortem", "result": 93, "unit": "%"}, {"measurement": "reduction in the number of spirochaetes compared to saline treated pigs", "setting": "[2]; faecal, post mortem", "result": 100, "unit": "%"}, {"measurement": "incidence of clinical signs in faeces (of 8 pigs)", "setting": "[2]; post mortem", "result": "one"}, {"measurement": "reduction in the number of spirochaetes compared to saline treated pigs", "setting": "[2]; posterior colon, post mortem", "result": 88, "unit": "%"}, {"measurement": "spirochaete shedding in faeces (faecal culture)", "setting": "[3]; after challenge", "result": "no signs of faecal spirochaete shedding by day 14"}, {"measurement": "gross pathology associated with dysentery", "setting": "[3]; anterior colon, post mortem", "result": "reduced the incidence of pathological symptoms in anterior and posterior colon"}, {"measurement": "total weight gained over the challenge period", "setting": "[3]; day 7 prior to challenge to slaughter at days 19 and 20", "result": 6.9, "unit": "kg"}, {"measurement": "mean weight at the end of the trial", "setting": "[3]; days 19 and 20 after infection", "result": 12.2, "unit": "kg"}, {"measurement": "incidence of clinical signs in faeces (of 8 pigs)", "setting": "[3]; post mortem", "result": "one"}, {"measurement": "gross pathology associated with dysentery", "setting": "[3]; posterior colon, post mortem", "result": "reduced the incidence of pathological symptoms in anterior and posterior colon"}]}, {"smiles": "CC(=O)OC/C=C(C)/C=C/C=C(C)/C=C/C1=C(C)CCCC1(C)C", "note": "[Retinyl acetate]", "values": [{"measurement": "IL-5 level and IL-4- and IL-5-containing cells in small intestinal mucosa", "setting": "[4]; mice fed low-protein diet, 1 mg", "result": "significantly restored the IL-5 level and the number of IL-4- and IL-5-containing cells"}, {"measurement": "anti-CT IgA level in intestinal mucosa", "setting": "[4]; mouse, in vivo", "result": "prevented the decline of anti-CT IgA level in the protein-deficient mice"}]}, {"smiles": "CNC[C@H](O)[C@@H](O)[C@H](O)[C@H](O)CO.Cc1c(Nc2ncccc2C(=O)O)cccc1C(F)(F)F", "note": "[flunix, reference compound]", "values": [{"measurement": "TNFα production (serum)", "setting": "[5]", "result": "failed to inhibit the production of TNFα"}, {"measurement": "growth during the (first) week of App challenge", "setting": "[6]; pig, in vivo", "result": "weight loss"}, {"measurement": "growth in the second week of challenge", "setting": "[6]; pig, in vivo", "result": "poorest growth of all groups in the second week of challenge"}, {"measurement": "pleurisy at necropsy (score 0-5)", "setting": "[6]; pig, in vivo", "result": "less pleurisy than the saline controls"}, {"measurement": "weight gain over the 2 week period following challenge with App", "setting": "[6]; pig, in vivo", "result": "lowest growth over the 2 week challenge period"}, {"measurement": "weight gain over the 2 week period following challenge with App", "setting": "[6]; pig, in vivo, listed as Flunix", "result": "poorest performing treatment in terms of growth"}, {"measurement": "percentage of lung affected by App lesions", "setting": "[6]; vs saline-treated controls", "result": "greatly reduced"}]}]}
